Structures are written as SMILES. Where only a bound is given, the exact number is not on record here.

The test system of data set [1] is spasmodic seizures caused by pentetrazole. Put plainly: antipentetrazole test (oral administration, mice). The note with it: Mus musculus, 30 minutes before 120 mg/kg pentetrazole i.p., dosage which protects 50% of the animals, Probit method. Format: in vivo. As for the experimental part:
As mentioned earlier, the compounds of formula A have valuable pharmacological properties. In particular, they display pronounced muscle relaxant, sedative-hypnotic, anticonvulsive and/or anxiolytic properties and have only a low toxicity.
(§1) In this animal experiment, the compound under investigation is administered orally to mice and 30 minutes later they are administered intraperitoneally 120 mg/kg of pentetrazole, which causes emprosthotonus and tonic stretchings of the fore and/or hind limbs in unprotected animals, 1-4 minutes after the injection. Ten (10) experimental animals are used per dosage of test substance. After counting the protected experimental animals, the ED50 is determined according to the known Probit method. The ED50 is that dosage which protects 50% of the experimental animals from the spasmodic seizures caused by pentetrazole. The results which have been obtained with representative members of the class of compound defined by formula A in the experiment described previously are compiled in the following Table. Moreover, the Table contains data concerning the acute toxicity (LD50) of some of these compounds in mg/kg in the case of single oral administration to mice.

Data set [2] is described as follows: acute toxicity, single oral administration to mice. As to conditions: mouse, in vivo, single oral administration (p.o.). The method, then: as §1

For `O=C(c1cc(-c2ccccc2)c(=O)n2c1-c1cc(Cl)ccc1CN2)N1CCOCC1` [Compound A, 4-[(10-chloro-6,7-dihydro-4-oxo-3-phenyl-4H-pyrido[2,1-a]phthalazin-1-yl)carbonyl]morpholine], in data set [1], the ED50 (commonly the midpoint of the dose-response relation) is 3.1 mg/kg. In addition, the LD50 (commonly the dose expected to kill half of the subjects tested) in data set [2] is more than 3000 mg/kg. Regarding `COC1CN(C(=O)c2cc(-c3ccccc3)c(=O)n3c2-c2sccc2CN3C)C1` [G, 1-[(4,5-dihydro-5-methyl-7-oxo-8-phenyl-7H-pyrido[1,2-b]thieno[2,3-d]pyridazin-10-yl)carbonyl]-3-methoxyazetidine], the ED50 in data set [1] was 8.2 mg/kg. Also, in data set [2], the LD50 is more than 5000 mg/kg. The matching figures for `COC1CN(C(=O)c2cc(-c3ccccc3)c(=O)n3c2-c2sccc2C(C)N3)C1` (racemic) [F, rac-1-[(4,5-dihydro-4-methyl-7-oxo-8-phenyl-7H-pyrido[1,2-b]thieno[2,3-d]pyridazin-10-yl)carbonyl]-3-methoxyazetidine]: 3.3 mg/kg and 3000 mg/kg. In the case of `CN(C)C(=O)c1cc(-c2ccccc2)c(=O)n2c1-c1cc(Cl)ccc1CN2` [D, 10-chloro-6,7-dihydro-N,N-dimethyl-4-oxo-3-phenyl-4H-pyrido[2,1-a]-phthalazine-1-carboxamide], the ED50 in data set [1] turned out to be 0.23 mg/kg. Take `COC1CN(C(=O)c2cc(-c3ccccc3)c(=O)n3c2-c2cc(Cl)ccc2CN3)C1` [C, 1-[(10-chloro-6,7-dihydro-4-oxo-3-phenyl-4H-pyrido[2,1-a]phthalazin-1-yl)carbonyl]-3-methoxyazetidine]: in data set [1], the ED50 worked out at 0.56 mg/kg. In turn, `COC[C@H]1CCCN1C(=O)c1cc(-c2ccccc2)c(=O)n2c1-c1cc(Cl)ccc1CN2` [Compound B, (R)-1-[(10-chloro-6,7-dihydro-4-oxo-3-phenyl-4H-pyrido[2,1-a]phthalazin-1-yl)carbonyl]-2-(methoxymethyl)pyrrolidine] had an ED50 in data set [1] of 0.44 mg/kg. In data set [2], this compound displayed an LD50 of more than 3000 mg/kg. In the case of `CO[C@@H]1CCN(C(=O)c2cc(-c3ccccc3)c(=O)n3c2-c2sccc2CN3)C1` [E, (R)-1-[(4,5-dihydro-7-oxo-8-phenyl-7H-pyrido[1,2-b]thieno[2,3-d]pyridazin-10-yl)carbonyl]-3-methoxypyrrolidine], in data set [1], the 50% effect level (ED50) was put at a dose of 1.4 mg/kg. Compound `CN(C)C(=O)c1cc(-c2ccccc2)c(=O)n2c1-c1sccc1CN2` [H, 4,5-dihydro-N,N-dimethyl-7-oxo-8-phenyl-7H-pyrido[1,2-b]thieno[2,3-d]pyridazine-10-carboxamide] registered an ED50 in data set [1] of 0.29 mg/kg. For the same compound, the LD50 in data set [2] was more than 5000 mg/kg.

Values taken from patent US4889854A, “Tricyclic pyridone derivatives” (Hoffman-La Roche Inc., priority 1987, dated 1989).
